According to PubChem BioAssay AID256 (DTP/NCI, 2004):
Several values for one entry are separate records, joined by “and”; a condition that tells them apart may be missing. Equal entries are not always repeated. Inconclusive results and toxic doses are left out. Rule for the calls: active = survival T/C of 150% or more; inactive = T/C below 125% in these data.

Test system: CD2F1 mice, L1210 leukemia ip, survival T/C
Test: NCI In Vivo Anticancer Drug Screen. Data for tumor model L1210 Leukemia (intraperitoneal) in CD2F1 (CDF1) mice
Settings: higher = longer survival
Procedure, shortened: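 Transplantable tumor in mice; compound-treated vs vehicle-treated groups. Read-out = treated/control ratio of the measured endpoint.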

[1] = endpoint: mean survival time, dose: 12.5 mg/kg/injection, schedule: Q01DX009 (ip), vehicle: other
[2] = endpoint: mean survival time, dose: 25.0 mg/kg/injection, schedule: Q01DX009 (ip), vehicle: other
[3] = endpoint: mean survival time, dose: 50.0 mg/kg/injection, schedule: Q01DX009 (ip), vehicle: other
[4] = endpoint: mean survival time, dose: 100.0 mg/kg/injection, schedule: Q01DX001 (ip), vehicle: saline with Tween-80
[5] = endpoint: mean survival time, dose: 100.0 mg/kg/injection, schedule: Q01DX009 (ip), vehicle: saline with Tween-80
[6] = endpoint: mean survival time, dose: 100.0 mg/kg/injection, schedule: Q04DX003 (ip), vehicle: saline with Tween-80
[7] = endpoint: mean survival time, dose: 200.0 mg/kg/injection, schedule: Q01DX009 (ip), vehicle: saline with Tween-80
[8] = endpoint: mean survival time, dose: 200.0 mg/kg/injection, schedule: Q04DX003 (ip), vehicle: saline with Tween-80
[9] = endpoint: mean survival time, dose: 400.0 mg/kg/injection, schedule: Q01DX009 (ip), vehicle: saline with Tween-80
[10] = endpoint: mean survival time, dose: 400.0 mg/kg/injection, schedule: Q04DX003 (ip), vehicle: saline with Tween-80
[11] = endpoint: mean survival time, dose: 100.0 mg/kg/injection, schedule: Q04DX002 (ip), vehicle: saline with Tween-80
[12] = endpoint: mean survival time, dose: 200.0 mg/kg/injection, schedule: Q04DX002 (ip), vehicle: saline with Tween-80
[13] = endpoint: mean survival time, dose: 400.0 mg/kg/injection, schedule: Q04DX002 (ip), vehicle: saline with Tween-80
[14] = endpoint: mean survival time, dose: 100.0 mg/kg/injection, schedule: Q04DX003 (ip), vehicle: saline

Measured: T/C

CCC[CH2][Sn]([CH2]CCC)([O]C(=O)COc1ccc(C(=O)c2ccccc2)c(O)c1)[O]C(=O)COc1ccc(C(=O)c2ccccc2)c(O)c1
inactive: endpoint: mean survival time, dose: 1.56 mg/kg/injection, schedule: Q01DX001 (ip), vehicle: saline with Tween-80 95 % of control | endpoint: mean survival time, dose: 3.13 mg/kg/injection, schedule: Q01DX001 (ip), vehicle: saline with Tween-80 98 % of control | endpoint: mean survival time, dose: 6.25 mg/kg/injection, schedule: Q01DX001 (ip), vehicle: saline with Tween-80 98 % of control | endpoint: mean survival time, dose: 12.5 mg/kg/injection, schedule: Q01DX001 (ip), vehicle: saline with Tween-80 105 % of control

O=C(O)/C=N/NS(=O)(=O)Cc1ccccc1
inactive: endpoint: mean survival time, dose: 12.5 mg/kg/injection, schedule: Q04DX003 (ip), vehicle: other 102 % of control | endpoint: mean survival time, dose: 25.0 mg/kg/injection, schedule: Q04DX003 (ip), vehicle: other 113 % of control | endpoint: mean survival time, dose: 50.0 mg/kg/injection, schedule: Q04DX003 (ip), vehicle: other 117 % of control | endpoint: mean survival time, dose: 100.0 mg/kg/injection, schedule: Q04DX003 (ip), vehicle: other 117 % of control | endpoint: mean survival time, dose: 200.0 mg/kg/injection, schedule: Q04DX003 (ip), vehicle: other 122 % of control | endpoint: mean survival time, dose: 400.0 mg/kg/injection, schedule: Q04DX003 (ip), vehicle: other 111 % of control

Cc1cc(N=C(N)N)ccc1C(=O)Oc1ccc([N+](=O)[O-])cc1
inactive: [1] 102 % of control | [2] 98 % of control | [3] 90 % of control

O=C(/C=C\c1ccc(Cl)cc1)c1ccccc1
inactive: [4] 100 % of control | endpoint: mean survival time, dose: 200.0 mg/kg/injection, schedule: Q01DX001 (ip), vehicle: saline with Tween-80 96 % of control | endpoint: mean survival time, dose: 400.0 mg/kg/injection, schedule: Q01DX001 (ip), vehicle: saline with Tween-80 96 % of control

Cc1cc(N=Nc2ccccc2)cc(C)c1N
inactive: [5] 96 % of control | [6] 97 % of control | [7] 102 % of control | [8] 98 % of control | [9] 98 % of control | [10] 110 % of control

CC(=O)Nc1ccc(N=NN(C)C)cc1
inactive: endpoint: mean survival time, dose: 4.68 mg/kg/injection, schedule: Q01DX009 (ip), vehicle: Klucel (hydroxypropylcellulose) (HPC) 106 % of control and 109 % of control | endpoint: mean survival time, dose: 9.37 mg/kg/injection, schedule: Q01DX009 (ip), vehicle: Klucel (hydroxypropylcellulose) (HPC) 114 % of control and 116 % of control

Cc1ccc(S(=O)(=O)OC2C3OCC(O3)C3OC(C)OC32)cc1 (centres undefined)
inactive: [5] 92 % of control | [7] 95 % of control | [9] 95 % of control

O=C(O)c1cccc(F)c1Br
inactive: [11] 95 % of control | [12] 95 % of control | [13] 87 % of control

Cc1cccc(NC(=S)NC(=O)c2ccccc2)n1
inactive: [1] 91 % of control | [2] 92 % of control | [3] 88 % of control | endpoint: mean survival time, dose: 100.0 mg/kg/injection, schedule: Q01DX009 (ip), vehicle: other 88 % of control | endpoint: mean survival time, dose: 200.0 mg/kg/injection, schedule: Q01DX009 (ip), vehicle: other 91 % of control

O=c1sc2ccccc2n1CCSCCn1c(=S)sc2ccccc21
inactive: [14] 93 % of control | endpoint: mean survival time, dose: 200.0 mg/kg/injection, schedule: Q04DX003 (ip), vehicle: saline 96 % of control | endpoint: mean survival time, dose: 400.0 mg/kg/injection, schedule: Q04DX003 (ip), vehicle: saline 96 % of control

COc1cc(NC(=O)Nc2ccccc2OC)c(OC)cc1Cl
inactive: [11] 90 % of control | [12] 93 % of control | [13] 107 % of control

Nc1nc(Br)nc2c1ncn2C1OC(CO)C(O)C1O (centres undefined)
inactive: endpoint: mean survival time, dose: 75.0 mg/kg/injection, schedule: Q01DX001 (ip), vehicle: saline 109 % of control

CCOP(=O)(Nc1ccc(F)cc1)OCC
inactive: endpoint: mean survival time, dose: 50.0 mg/kg/injection, schedule: Q01DX001 (ip), vehicle: carboxymethylcellulose (CMC) 106 % of control | endpoint: mean survival time, dose: 100.0 mg/kg/injection, schedule: Q01DX001 (ip), vehicle: carboxymethylcellulose (CMC) 96 % of control | endpoint: mean survival time, dose: 200.0 mg/kg/injection, schedule: Q01DX001 (ip), vehicle: carboxymethylcellulose (CMC) 100 % of control | endpoint: mean survival time, dose: 400.0 mg/kg/injection, schedule: Q01DX001 (ip), vehicle: carboxymethylcellulose (CMC) 102 % of control

COc1ccc(CNCCO)cc1OC
inactive: endpoint: median survival time, dose: 25.0 mg/kg/injection, schedule: Q04DX003 (ip), vehicle: saline 90 % of control | endpoint: median survival time, dose: 50.0 mg/kg/injection, schedule: Q04DX003 (ip), vehicle: saline 90 % of control | endpoint: median survival time, dose: 100.0 mg/kg/injection, schedule: Q04DX003 (ip), vehicle: saline 90 % of control | endpoint: median survival time, dose: 200.0 mg/kg/injection, schedule: Q04DX003 (ip), vehicle: saline 100 % of control

CCCCN=Cc1ccccc1O.CCCCN=Cc1ccccc1O.[Cr]
inactive: [4] 93 % of control

C=C1C[C@@H](O)C[C@@]2(C)C[C@@H]3OC(=O)C(=C)[C@@H]3C[C@H]12
inactive: [5] 104 % of control | [7] 111 % of control

Cc1c(N=O)c(-c2ccccc2)n(O)[n+]1[O-]
inactive: endpoint: mean survival time, dose: 50.0 mg/kg/injection, schedule: Q01DX009 (ip), vehicle: Klucel (hydroxypropylcellulose) (HPC) 104 % of control | endpoint: mean survival time, dose: 100.0 mg/kg/injection, schedule: Q01DX009 (ip), vehicle: Klucel (hydroxypropylcellulose) (HPC) 104 % of control | endpoint: mean survival time, dose: 200.0 mg/kg/injection, schedule: Q01DX009 (ip), vehicle: Klucel (hydroxypropylcellulose) (HPC) 101 % of control

O=c1c(O)c(-c2ccc(O)c(O)c2)oc2cc(O)cc(O)c12
inactive: endpoint: mean survival time, dose: 100.0 mg/kg/injection, schedule: Q01DX001 (ip), vehicle: saline 100 % of control | endpoint: mean survival time, dose: 200.0 mg/kg/injection, schedule: Q01DX001 (ip), vehicle: saline 100 % of control | [7] 90 % of control | endpoint: mean survival time, dose: 400.0 mg/kg/injection, schedule: Q01DX001 (ip), vehicle: saline 100 % of control | [9] 96 % of control | endpoint: mean survival time, dose: 800.0 mg/kg/injection, schedule: Q01DX009 (ip), vehicle: saline with Tween-80 87 % of control

CCCCO.[Ti]
inactive: [5] 103 % of control | [7] 97 % of control | [9] 104 % of control

O=C(O)c1ccc(C(=O)O)c(C(=O)O)c1.[NH-]Cc1ccccc1C[NH-].[Pt+2]
inactive: endpoint: mean survival time, dose: 5.0 mg/kg/injection, schedule: Q04DX003 (ip), vehicle: sodium bicarbonate 110 % of control | endpoint: mean survival time, dose: 10.0 mg/kg/injection, schedule: Q04DX003 (ip), vehicle: sodium bicarbonate 110 % of control | endpoint: mean survival time, dose: 20.0 mg/kg/injection, schedule: Q04DX003 (ip), vehicle: sodium bicarbonate 108 % of control | endpoint: mean survival time, dose: 40.0 mg/kg/injection, schedule: Q04DX003 (ip), vehicle: sodium bicarbonate 108 % of control | endpoint: mean survival time, dose: 80.0 mg/kg/injection, schedule: Q04DX003 (ip), vehicle: sodium bicarbonate 96 % of control

CN(C)NC(=O)CC(N)C(=O)O (centres undefined)
inactive: [6] 101 % of control | [8] 101 % of control | [10] 102 % of control

O=C(O)CCC(=O)Nc1ccccc1C(=O)O
inactive: [5] 102 % of control | [7] 93 % of control | [9] 96 % of control

NS(=O)(=O)c1ccc(NC2OCC(O)C(O)C2O)cc1 (centres undefined)
inactive: endpoint: mean survival time, dose: 100.0 mg/kg/injection, schedule: Q01DX009 (ip), vehicle: saline 103 % of control | [6] 93 % of control | endpoint: mean survival time, dose: 200.0 mg/kg/injection, schedule: Q01DX009 (ip), vehicle: saline 104 % of control | [8] 98 % of control | endpoint: mean survival time, dose: 400.0 mg/kg/injection, schedule: Q01DX009 (ip), vehicle: saline 103 % of control | [10] 101 % of control

Nc1nc(N)nc(NC(=O)COc2cc(Cl)c(Cl)cc2Cl)n1
inactive: [5] 100 % of control | [6] 92 % of control | [7] 105 % of control | [9] 103 % of control | [10] 88 % of control

[NH2-].[NH2-].[NH2-].[NH2-].[Pt+4]
inactive: endpoint: mean survival time, dose: 25.0 mg/kg/injection, schedule: Q01DX009 (ip), vehicle: saline with Tween-80 92 % of control | [14] 98 % of control

CC(=O)N(c1nc(Cl)c2cc[nH]c2n1)C1OC(CO)C(O)C1O (centres undefined)
inactive: endpoint: mean survival time, dose: 12.5 mg/kg/injection, schedule: Q01DX005 (ip), vehicle: water 100 % of control | endpoint: mean survival time, dose: 25.0 mg/kg/injection, schedule: Q01DX005 (ip), vehicle: water 100 % of control | endpoint: mean survival time, dose: 50.0 mg/kg/injection, schedule: Q01DX005 (ip), vehicle: water 101 % of control | endpoint: mean survival time, dose: 100.0 mg/kg/injection, schedule: Q01DX005 (ip), vehicle: water 101 % of control | endpoint: mean survival time, dose: 200.0 mg/kg/injection, schedule: Q01DX005 (ip), vehicle: water 103 % of control
